Where “and” joins values, the source holds several entries; their conditions need not be identical. Identical values can stand only once.
How the values were obtained:
[1] = tested on: gram-negative bacteria; assay: MIC determination, summary over gram-negative strains; assay type: cell-based; settings: colistin concentration of 0.1 μM (0.12 μg/mL)
Protocol: (§1) The minimal inhibitory concentration (MIC) has been determined according to the CSLI guidelines (CLSI [2012]). Briefly, in a sterile polystyrene U-bottom 96-well plate, a 2-fold serial dilution ranging from 100 to 0.78 μM of testing compounds has been prepared in 50 μL MHB. A freshly inoculated S. aureus culture was grown until OD600 nm of approx. 0.6 and diluted to 10^6 CFU/mL in MHB. Finally, 50 μL of the latter cell suspension was added to each well and then incubated statically for 18–24 h at 37 °C. MIC was determined using BacTiterGlo ATP assay (Promega, Madison, WI, USA) and Tecan Infinite F200 Pro (Tecan, Männedorf, Switzerland). Moxifloxacin and DMSO were used as positive and negative control, respectively. Sublethal concentrations of colistin (0.1 μM) were used in some experiments to increase the permeability of the gram-negative cell envelope for compound testing. For E. cloacae, a broth microdilution assay was performed using a serial 2-fold dilution in 96-well flat-bottomed plates (Falcon, BD Bioscience, Heidelberg) of both PPs in broth LB medium (Roth, Karlsruhe) at a concentration range of 50–0.024 μM.

[2] = tested on: Escherichia coli ATCC 25922; assay: MIC determination (microbroth dilution); assay type: cell-based; settings: colistin alone
Protocol: (§2) Cultures were, if not stated differently, incubated at 37 °C with aeration and shaking (150 rpm) in Mueller-Hinton broth (MHB). Bacteria were freshly incubated at the next morning from an overnight pre-culture for actively growing bacteria to an OD600 nm of approx. 0.6. To ensure persistent growth form, the bacteria were grown overnight until a density at OD600 nm > 5.0 was obtained. For biofilm growth, some colonies from a Mueller-Hinton agar (MHA) plate were picked and resuspended in MHB. Cell density has been adjusted to OD600 nm = 0.8, and cells were sown into a flat-bottom 96-well plate to be incubated statically at 37 °C with aeration. Studies were mainly performed with S. aureus Mu50.
as §1

[3] = tested on: Acinetobacter baumannii ATCC 747; assay: MIC determination (microbroth dilution); assay type: cell-based; settings: colistin alone
Protocol: as §2, §1

[4] = tested on: actively replicating MRSA strain Mu50; assay: Killing kinetics, actively replicating cells (CFU plating); assay type: cell-based, Staphylococcus aureus; settings: MHB, start 10^6 CFU/mL; PPs at 4× MIC, moxifloxacin 20 μM; detection limit 10^2 CFU/mL
Protocol: S. aureus cells were freshly incubated in MHB until an OD600 nm of approx. 0.6 was reached. Next, the cells were diluted to 10^6 CFU/mL in 5 mL MHB. […] At certain time points (0, 0.5, 1, 3, 6, 8, 24 h), 100 μL was removed from the culture, diluted and plated onto MHA plates. After 24-h incubation, colonies were counted and viability (expressed as colony-forming units per mL (CFU/mL)) was calculated considering the dilution factor.

[5] = tested on: stationary phase-induced persistent cells of MRSA strain Mu50; assay: Persister killing kinetics (CFU plating); assay type: cell-based, Staphylococcus aureus; settings: start 10^8 CFU/mL
Protocol: For persister killing kinetics, cells were grown overnight until a density of OD600 nm > 5.0 was reached and then washed three times with PBS. Next, cell density was adjusted to 10^8 CFU/mL in 5 mL PBS. […] Analysis was performed as described above.

[6] = tested on: pre-formed MRSA biofilms; assay: Biofilm viability by CFU plating; assay type: cell-based, Staphylococcus aureus; settings: 24 h of treatment, 4× minimal biofilm inhibitory concentration, moxifloxacin 20 μM
Protocol: Additionally, biofilm viability was quantified by CFU plating. Biofilms were pregrown as described above and treated for 24 h with 4× minimal biofilm inhibitory concentrations as calculated from the Resazurin reduction assay. Biofilms were dispersed by pipetting followed by sonification in a water bath. Dilutions were plated on Mueller-Hinton agar plates and incubated overnight at 37 °C.

colistin [reference compound]
growth of gram-negative bacteria [1]: not inhibited
MIC [2]: 0.78 μM and 0.90 μg/mL
MIC [3]: 0.78 μM and 0.90 μg/mL

COc1c(N2C[C@@H]3CCCN[C@@H]3C2)c(F)cc2c(=O)c(C(=O)O)cn(C3CC3)c12 [moxifloxacin, reference compound]
time until viability reached the detection limit [4]: 3 h
decrease of viability of persistent cells after 24 h ([5]; 3-bromo-PP at 4× MIC, moxifloxacin control, 24 h): did not show any effect
reduction in viable cell counts in biofilms [6]: virtually no effect

CCCCCCCCCCCCCCCCn1cc[n+](Cc2ccccc2)c1C.[I-] [NH125, reference compound]
time until viability reduced to the detection limit ([5]; PPs at 4× MIC, NH125 10 μM, detection limit 10^2 CFU/mL): ~3 h

Source: PMC8217011, “Natural brominated phenoxyphenols kill persistent and biofilm-incorporated cells of MRSA and other pathogenic bacteria” (Applied Microbiology and Biotechnology, 2020)
